Experimental data published in patent US20040115237A1, “Biocompatible composite” (priority 2001, published 2004).

What was measured:
[1] = system: Human Aortic Vascular SMC cell line; experiment: SMC growth inhibition after drug exposure, MTT assay and Neutral Red assay; type: cell-based; conditions: high doses; analysed after 72 hours
Protocol: The Human Aortic Vascular SMC cell line was investigated. 96 well plates were seeded and were incubated for at least one day. Medium from the plate was removed and replaced with medium containing varying concentrations of drugs, the drugs being dex, aspirin, GTN or a combination of these drugs. The effects of the drugs were analysed after 72 hours with two viability assays: MTT assay and Neutral Red assay. Absorbance values were read from a microplate reader. MTT is a yellow tetrazolium salt taken up into cells. In viable cells, the salt was reduced in cytosol or mitochondria to form blue formazan salt. The formazan product was very insoluble and was disolved in dimethylsulphoxide before its absorbance was calculated. In non-viable cells, there was no reaction and the cells remained yellow. The Neutral Red assay involved adding neutral red solution, a red dye to cells. In viable cells, the dye stained lysosomes. The cells were incubated with neutral red solution for three hours (to enable dye to penetrate cells), a neutral red destain solution was then added to remove the dye. The intensity of the red colour equated to the number of viable cells.

[2] = system: HA-VSCMs; experiment: HA-VSMC culture on silicone based film membranes, viability staining viewed under CLSM; type: cell-based, Human; conditions: GTN coated FISi membrane vs FISi only film membranes
Protocol: HA-VSCMs were cultured on silicone based film membranes supplied by Vascutek. 2 membrane types were tested: uncoated FISi membrane and FISi membrane coated with GTN. Cells were seeded at 5×10^3 seeding density. Cells were cultured for a week and the medium was changed every two days. […] This problem was overcome by sticking the coverslips to the plate with double sided tape before the wells were seeded. Furthermore the cells were washed off during staining or the cells were saved for too long. Some cells were saved by introducing a gentle washing step. On the seventh day, the coverslips were stained and viewed under the CLSM for viability studies.
The following were used as viability stains; CFDA (carboxyfluorescein diacetate) is a vital stain that penetrates cell membranes. Viable cells contain esterase enzymes that remove the diacetate from the molecule thus forming CF which is fluorescent. Once CF if formed, it accumulates in the membrane and viable cells with fluoresce bright green.
Ethidium Bromide: is a vital dye that is only able to pass through the compromised membrane of dead cells and stain them red.
Acridine Orange: is a dye which intercalates with DNA and RNA by intercalation or electrostatic attraction.

## CC(=O)Oc1ccccc1C(=O)O [aspirin, acetylsalicylic acid]
[1]
  role in the treatment of vascular proliferative disorder (SMC growth inhibition): appear to have a beneficial role

## O=[N+]([O-])OCC(CO[N+](=O)[O-])O[N+](=O)[O-] [GTN, Glyceryl Trinitrate]
[2]
  cell growth compared to FISi only film membranes: does not significantly decrease cell growth
